In article PMC8703317, “2-(Piperidin-4-yl)acetamides as Potent Inhibitors of Soluble Epoxide Hydrolase with Anti-Inflammatory Activity” (Pharmaceuticals, 2021):
pIC50: −log10 of the molar value.

What was measured:
[1] = test system: microglial BV2 cells activated with LPS; test: nitric oxide generation (nitrite, Griess) in LPS-activated BV2 microglial cells; format: cell-based; details: LPS 0.1 or 1 μg/mL, 24 h
Procedure: Inflammatory changes were determined by the measure of nitric oxide generation, as the endpoint of iNOS activation, in microglial BV2 cells. BV2 cells (HyperCLDB, Banca Biologica e Cell Factory, ICLC ATL 03001) were grown in RPMI 1640 medium, supplemented with L-glutamine 2 mM, gentamycin 50 µM and 10% FBS. For experiments, cells were seeded in 96-well plates at 2 × 10^5 cells/mL, 100 µL/well. […] After 1 h of incubation, the cells were treated with the pro-inflammatory chemical LPS (0.1 μg/mL or 1 μg/mL; strain E. coli […], Sigma-Aldrich, L-2654, batch #120M4028) and further incubated for 24 h. TPPU at 100 µM was also assayed as a reference anti-inflammatory compound. DMSO 0.1% was used as vehicle. Cells were maintained at 37 °C in a humidified incubator with 5% CO2 throughout the procedures. Nitric oxide released to the culture medium was measured by the colorimetric Griess reaction that detects nitrite (NO2^–), a stable reaction product of nitric oxide and molecular oxygen. Briefly, 50 µL of conditioned medium were incubated with 50 µL of Griess reagent for 10 min at room temperature. Optical density was measured at 540 nm. Nitrite concentration was determined from a sodium nitrite standard curve. Results were normalized by cell protein content in the well and expressed as a percentage of the average maximal values given by the pro-inflammatory agent (LPS 1 µg/mL). Each treatment was performed in 3–5 wells and the whole experiment was repeated 3–4 times in cultures of different cell passage. Data were analyzed by ANOVA followed by Tukey’s multiple comparisons test.

[2] = test system: SH-SY5Y neuroblastoma cells; test: cytotoxicity by propidium iodide staining in SH-SY5Y cells; format: cell-based; details: 24 h incubation, up to 100 µM (highest concentration tested), vehicle DMSO 0.1%, n = 10–12
Procedure: Cytotoxicity was evaluated in the human neuroblastoma SH-SY5Y cell line (ATCC Number: CRL-2266). Cells were cultured in minimum essential medium/HAM’s-F12 (1:1, v/v) medium, supplemented with non-essential amino acids, L-glutamine 1 mM, gentamycin 50 µM and 10% heat inactivated fetal bovine serum (FBS). For experiments, the cells were seeded at 3 × 10^5 cells/mL (100 µL/well) in 96-well plates. […] DMSO 0.1% was used as vehicle. Treated cultures were returned to the incubator for a 24 h test exposure. One hour before termination, cell death was measured by PI staining. Briefly, PI (Molecular Probes) at the final concentration of 7.5 µg/mL was added to the cells and incubated for 1 h. PI enters into cells with damaged membrane and binds to DNA yielding intense red fluorescence. Fluorescence was measured in a SAFAS FLX-Xenius microplate reader (Monaco) at 530 nm excitation and 645 nm emission. Percentage of cell death for a given fluorescence value (Ft) was calculated according to the values given by Triton X100 killed cells (Fmax; 100% cell death) and vehicle treated cells (Fmin; 0% cell death) [% = ((Ft-Fmin)/(Fmax-Fmin)) × 100]. Each treatment was assayed in 3–4 wells per experiment and the experiment was repeated 3 times in cultures of different cell passages. Data were analyzed by ANOVA.

[3] = microsomal stability, mouse microsomes; format: in vitro ADME; details: pooled murine microsomes, pH 7.4; 60 min incubation with mouse microsomes, NADPH, 37 °C
Procedure: (§1) The human and murine pooled microsomes employed were purchased from Tebu-Xenotech (Barcelona, Spain). The compound was incubated at 37 °C with the microsomes in a 50 mM phosphate buffer (pH = 7.4) containing 3 mM MgCl2, 1 mM NADP, 10 mM glucose-6-phosphate and 1 U/mL glucose-6-phosphate-dehydrogenase. Samples (75 µL) were taken from each well at 0, 10, 20, 40 and 60 min and transferred to a plate containing 4 °C 75 µL acetonitrile and 30 µL of 0.5% formic acid in water were added for improving the chromatographic conditions. The plate was centrifuged (46000 g, 30 min) and supernatants were taken and analyzed in a UPLC-MS/MS (Xevo-TQD, Waters) by employing a BEH C18 column and an isocratic gradient of 0.1% formic acid in water: 0.1% formic acid acetonitrile (60:40). The metabolic stability of the compounds was calculated from the logarithm of the remaining compounds at each of the time points studied.

[4] = microsomal stability, human microsomes; format: in vitro ADME; details: pooled human microsomes, pH 7.4; 60 min incubation with human microsomes, NADPH, 37 °C
Procedure: as §1

[5] = target: T1, murine sEH (Mus musculus, UniProt P34914); test: fluorescent-based sEH inhibition assay, recombinant mouse sEH; format: biochemical; details: baculovirus expressed recombinant mouse sEH, average of three replicates
T1 construct: made in house; host or cells: baculovirus expression system (insect cells implied)
T1 sequence (P34914 1-554): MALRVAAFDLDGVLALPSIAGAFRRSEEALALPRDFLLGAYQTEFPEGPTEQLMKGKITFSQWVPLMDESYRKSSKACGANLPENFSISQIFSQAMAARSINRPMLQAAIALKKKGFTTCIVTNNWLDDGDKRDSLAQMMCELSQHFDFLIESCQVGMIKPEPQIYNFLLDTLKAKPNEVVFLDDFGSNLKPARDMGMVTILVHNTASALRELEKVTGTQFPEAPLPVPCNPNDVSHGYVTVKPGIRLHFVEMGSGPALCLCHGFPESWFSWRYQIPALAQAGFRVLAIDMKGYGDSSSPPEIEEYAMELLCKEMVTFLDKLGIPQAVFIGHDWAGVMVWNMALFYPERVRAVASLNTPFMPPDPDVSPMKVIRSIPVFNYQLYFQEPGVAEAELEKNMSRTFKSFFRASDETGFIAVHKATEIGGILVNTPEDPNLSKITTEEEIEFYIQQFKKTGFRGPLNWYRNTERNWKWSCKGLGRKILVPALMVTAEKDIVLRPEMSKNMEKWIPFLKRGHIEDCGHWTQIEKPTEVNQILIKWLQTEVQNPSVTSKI
Procedure: The potency of all the new compounds as inhibitors of the human and murine sEH was tested using a previously reported sensitive fluorescent-based assay using baculovirus expressed recombinant human and mouse sEH [28].

[6] = design: method as in PMID 33945278; details: 60 min incubation with human microsomes, NADPH, 37 °C; cited from earlier work
[7] = design: method as in PMID 33945278; details: 60 min incubation with mouse microsomes, NADPH, 37 °C; cited from earlier work

Compound	nitric oxide generation (nitrite levels) in presence of LPS ([1]; compound at 50 µM)	nitric oxide generation (nitrite levels) in presence of LPS ([1]; compound at 100 µM)	cytotoxicity, percentage of cell death (PI staining) [2]	remaining at 1 h [3]	remaining at 1 h [4]	pIC50 [5]	Microsomal Stability Human % Remaining at 1 h [6]	Microsomal Stability Mouse % Remaining at 1 h [7]
O=C(CC1CCN(c2ccc(C(=O)O)cc2)CC1)NC12CC3CC(F)(CC(C1)c1ccccc13)C2 [10c, 4-(4-(2-((9-Fluoro-5,6,8,9,10,11-hexahydro-7H-5,9:7,11-dimethanobenzo[9]annulen-7-yl)amino)-2-oxoethyl)piperidin-1-yl)benzoic Acid]	indistinguishable from control levels	indistinguishable from control levels	no cytotoxicity	29%	60%	9.15	–	–
CC12CC3CC(NC(=O)N[C@H]4CC[C@H](Oc5ccc(C(=O)O)cc5)CC4)(CC(C1)c1ccccc13)C2 [11a]	–	–	–	–	–	–	70%	10%
O=C(NC12CC3CC(F)(CC(C1)c1ccccc13)C2)N[C@H]1CC[C@H](Oc2ccc(C(=O)O)cc2)CC1 [11b]	–	–	–	–	–	–	77%	36%
O=C(NC12CC3CC(Cl)(CC(C1)c1ccccc13)C2)N[C@H]1CC[C@H](Oc2ccc(C(=O)O)cc2)CC1 [11c]	–	–	–	–	–	–	89%	60%
